{"source": "patent US10981914B2", "about": "“Toll-like receptor 7 (TLR7) agonists having a tricyclic moiety, conjugates thereof, and methods and uses therefor” (BRISTOL-MYERS SQUIBB COMPANY, priority 2017, dated 2021)", "origin": "cited, not measured here", "test_system": "IFN-α", "details": "as measured by IFN-α induction"}
{"smiles": "CCCCOc1nc(N)c2c(n1)N(Cc1cccc(CN3CCCC3)c1)CC(=O)N2", "note": "[Vesatolimod, vesatolimod]", "values": [{"measurement": "potency, fold less than that of the corresponding purine-8-one compound", "value": 100, "unit": "×"}]}
